Test results taken from publication PMC3110694 (Science (New York, N.Y.), 2010).
“Also recorded” adds a separate entry of the source.

How the values were obtained:
Balb/cJ mice = assay: CPT-11-induced delayed diarrhea and intestinal damage in mice
E. coli β-glucuronidase = E. coli β-glucuronidase (Escherichia coli, UniProt P05804); assay: E. coli β-glucuronidase in vitro inhibition assay; assay type: biochemical; details: errors SD, N = 3
[1] = target: β-glucuronidase activity in cultured E. coli cells (Escherichia coli, UniProt P05804); assay: β-glucuronidase activity in living E. coli cells; assay type: cell-based
β-glucuronidase activity in cultured E. coli cells, sequence (P05804 whole entry): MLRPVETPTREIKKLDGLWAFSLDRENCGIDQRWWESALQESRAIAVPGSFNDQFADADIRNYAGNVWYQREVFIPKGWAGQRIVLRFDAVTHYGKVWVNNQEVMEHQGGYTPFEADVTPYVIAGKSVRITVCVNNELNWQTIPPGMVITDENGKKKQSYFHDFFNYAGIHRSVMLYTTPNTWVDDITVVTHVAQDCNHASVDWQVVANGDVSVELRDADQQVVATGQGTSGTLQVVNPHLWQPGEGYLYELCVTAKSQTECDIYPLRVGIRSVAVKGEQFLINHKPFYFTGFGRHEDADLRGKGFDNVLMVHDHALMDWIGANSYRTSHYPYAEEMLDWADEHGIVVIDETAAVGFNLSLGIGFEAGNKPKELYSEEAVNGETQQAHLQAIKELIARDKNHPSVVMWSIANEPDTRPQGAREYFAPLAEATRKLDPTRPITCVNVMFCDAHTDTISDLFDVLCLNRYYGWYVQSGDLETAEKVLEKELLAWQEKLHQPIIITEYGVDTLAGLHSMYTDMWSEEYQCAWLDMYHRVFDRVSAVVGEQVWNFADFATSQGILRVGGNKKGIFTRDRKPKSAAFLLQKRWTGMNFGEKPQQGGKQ

E. coli β-glucuronidase, sequence (P05804 whole entry): as above

Row | Compound | diarrhea and bloody diarrhea, CPT-11 only (Balb/cJ mice; group 3: CPT-11 50 mg per kg i.p. once daily, no Inhibitor 1, days 8 to 10) | colonic tissue histology, CPT-11 only (Balb/cJ mice; group 3: CPT-11 only) | euthanasia, CPT-11 only (Balb/cJ mice; group 3: CPT-11 only, by day 11) | IC50 (E. coli β-glucuronidase) [µM] | Ki (E. coli β-glucuronidase) [µM] | EC50 ([1]; E. coli cell-based, errors SD, N = 3) | effect on β-glucuronidase activity in cultured E. coli cells ([1]; cultured E. coli, listed as GDL)
1 | CCc1c2c(nc3ccc(OC(=O)N4CCC(N5CCCCC5)CC4)cc13)-c1cc3c(c(=O)n1C2)COC(=O)[C@]3(O)CC [CPT-11, irinotecan, reference compound] | all the animals; also recorded: produced bloody diarrhea starting after 8 days and peaking at 10 days | destroyed these tissues; also recorded: highly disrupted tissues | all the group 3 animals had to be euthanized | – | – | – | –
2 | glucaro-δ-lactam [reference compound] | – | – | – | 26.4 ± 0.483 | 7.75 ± 0.475 | N.E. | did not disrupt β-glucuronidase activity; also recorded: no effect
